US20250009734A1, “METHODS OF INHIBITING FOXO1 FOR TREATMENT OF LYMPHATIC DISORDERS” (UNIVERSITY OF SOUTH FLORIDA, priority 2023, published 2025)

Assays:
[1] = system: human dermal lymphatic endothelial cells (hdLECs); test: Immunostaining of PROX1 and β-catenin localization in cultured hdLECs; format: cell-based; conditions: 0.5 μM AS for 48 hours, DMSO control: almost exclusively on the cell membrane
Procedure: FIGS. 2A-2F. AS1842856 elevates protein expression of valve genes and promotes b-catenin nuclear localization in cultured hdLECs. (A) hdLECs were cultured under static condition and treated for 48 hours with 0.5 μM DMSO (vehicle control) or 0.5 μM AS treatment. Thereafter, proteins were extracted, and western blot perform for the indicated proteins. ACTB is the loading control. (B) Quantification results of indicated proteins in western blot from three independent experiments. (C-F) Immunostaining of cultured hdLECs for PROX1 and CTNNB1 protein. All values are mean±SEM. n=3 experiment repeats; ns=not significant; *p≤0.05, **p≤0.01, ***p≤0.001. Vehicle control: 0.5 μM DMSO for 48 hours treatment. AS1842856: 0.5 μM AS1842856 for 48 hours treatment. Cells were stained for PROX1 (green) and CTNNB1 (purple). (E) and (F) are the merged images for PROX1 and CTNNB1. Scale bar is 50 μm.
In cells, phosphorylated β-catenin is degraded in a destruction complex in the cytoplasm, but unphosphorylated β-catenin upon activation is translocated to the nucleus from the cytoplasm (Harada et al., 1999). It has been reported that β-catenin in the nucleus of LECs promotes the expression of valve-forming genes FOXC2 and PROX1 by binding to the promoter areas of these two genes (Cha et al., 2016). […]

[2] = system: Foxc2^+/CreERT2 mice; test: Whole-mount immunostaining of mesenteric collecting lymphatic vessels after injection; format: in vivo, mouse
Source text: FIG. 4. AS1842856 injection promotes b-catenin nuclear localization in vivo. Panels A-P′ show whole-mount immunostaining of P10 mesenteric collecting lymphatic vessels from wildtype and Foxc2^+/CreERT2 pups with vehicle control (DMSO) or AS1842856 injection. Prox1 in green, Ctnnb1 in purple, and VE-cadherin in gray. A′-P′ are the higher magnification images of the white box areas in A-P. Scale bars are 100 μm.
Foxc2 is a chief regulator of lymphatic valve development modulating the expression of many valve genes (Sabine et al., 2015). While Foxc2 null animals are embryonic lethal, the Foxc2 heterozygous mice are a model of the human disease lymphedema-distichiasis with severe lymphatic valve loss (Kriederman et al., 2003, Petrova et al., 2004). To test whether AS1842856 treatment increases valve growth in vivo, the inventors intraperitoneally (i.p.) injected AS1842856 into Foxc2^+/CreERT2 pups. […] Since the open reading frame in one allele of the Foxc2 gene is replaced with the cDNA for CreERT2, the Foxc2^+/CreERT2 mice is heterozygous for Foxc2 gene (Geng et al., 2016). […] To compare the number of valves from these 4 groups, the inventors counted total number of valves from 6 branches (from the lymph nodes to the gut wall) in the mesentery and measured the total length of these branches as previously published (Scallan et al., 2021). […]

[3] = molecular target: FOXO1 (Homo sapiens, UniProt Q12778); conditions: binds to FOXO1 protein, prevents binding to promoter regions; Nagashima et al., 2010; cited from earlier work
Chain of FOXO1 (Q12778 whole entry, species assumed): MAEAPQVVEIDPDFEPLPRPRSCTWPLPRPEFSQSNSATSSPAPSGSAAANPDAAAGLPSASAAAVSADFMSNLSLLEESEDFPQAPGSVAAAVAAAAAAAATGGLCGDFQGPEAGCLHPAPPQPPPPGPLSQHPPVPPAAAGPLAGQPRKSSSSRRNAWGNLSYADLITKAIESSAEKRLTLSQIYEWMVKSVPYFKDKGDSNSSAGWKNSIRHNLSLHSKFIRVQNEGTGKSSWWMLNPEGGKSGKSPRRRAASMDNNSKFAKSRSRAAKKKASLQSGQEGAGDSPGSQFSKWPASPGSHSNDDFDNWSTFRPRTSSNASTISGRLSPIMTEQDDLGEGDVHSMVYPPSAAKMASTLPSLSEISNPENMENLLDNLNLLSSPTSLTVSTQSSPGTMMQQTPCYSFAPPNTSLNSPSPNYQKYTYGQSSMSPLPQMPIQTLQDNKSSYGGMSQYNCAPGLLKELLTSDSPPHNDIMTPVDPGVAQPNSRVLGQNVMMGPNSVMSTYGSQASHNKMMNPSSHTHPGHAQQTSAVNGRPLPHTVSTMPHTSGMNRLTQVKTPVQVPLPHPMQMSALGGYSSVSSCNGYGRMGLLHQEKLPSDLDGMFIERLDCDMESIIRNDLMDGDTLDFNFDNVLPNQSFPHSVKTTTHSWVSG

In the case of `CCn1cc(C(=O)O)c(=O)c2c(N)c(F)c(NC3CCCCC3)cc21` [AS1842856], the “localization of β-catenin (immunostaining)” value [1] was “a remarkable amount of β-catenin was in the nucleus”, the “valves expressing Itga9 (whole-mount immunostaining)” value ([2]; AS1842856 treated Foxc2^+/CreERT2 pups) was “all the valves” and the “nuclear localization of β-catenin in mesenteric LECs in vivo” value ([2]; P10 mesenteries after two injections, wildtype and Foxc2^+/CreERT2 pups, vs DMSO injected group) was “increased nuclear purple staining from β-catenin”. For the same compound, the “effect on transcription activity of FOXO1 in the nucleus” value [3] was “reduces the transcription activity of FOXO1”.
